Data on 63 compounds can be found in patent publication US8952169B2 (Genentech, Inc., priority 2012, dated 2015).

For orientation: IC50 means the concentration at which inhibition is half-maximal.

Chain of hNav1.7 (Q15858 whole entry, looked up): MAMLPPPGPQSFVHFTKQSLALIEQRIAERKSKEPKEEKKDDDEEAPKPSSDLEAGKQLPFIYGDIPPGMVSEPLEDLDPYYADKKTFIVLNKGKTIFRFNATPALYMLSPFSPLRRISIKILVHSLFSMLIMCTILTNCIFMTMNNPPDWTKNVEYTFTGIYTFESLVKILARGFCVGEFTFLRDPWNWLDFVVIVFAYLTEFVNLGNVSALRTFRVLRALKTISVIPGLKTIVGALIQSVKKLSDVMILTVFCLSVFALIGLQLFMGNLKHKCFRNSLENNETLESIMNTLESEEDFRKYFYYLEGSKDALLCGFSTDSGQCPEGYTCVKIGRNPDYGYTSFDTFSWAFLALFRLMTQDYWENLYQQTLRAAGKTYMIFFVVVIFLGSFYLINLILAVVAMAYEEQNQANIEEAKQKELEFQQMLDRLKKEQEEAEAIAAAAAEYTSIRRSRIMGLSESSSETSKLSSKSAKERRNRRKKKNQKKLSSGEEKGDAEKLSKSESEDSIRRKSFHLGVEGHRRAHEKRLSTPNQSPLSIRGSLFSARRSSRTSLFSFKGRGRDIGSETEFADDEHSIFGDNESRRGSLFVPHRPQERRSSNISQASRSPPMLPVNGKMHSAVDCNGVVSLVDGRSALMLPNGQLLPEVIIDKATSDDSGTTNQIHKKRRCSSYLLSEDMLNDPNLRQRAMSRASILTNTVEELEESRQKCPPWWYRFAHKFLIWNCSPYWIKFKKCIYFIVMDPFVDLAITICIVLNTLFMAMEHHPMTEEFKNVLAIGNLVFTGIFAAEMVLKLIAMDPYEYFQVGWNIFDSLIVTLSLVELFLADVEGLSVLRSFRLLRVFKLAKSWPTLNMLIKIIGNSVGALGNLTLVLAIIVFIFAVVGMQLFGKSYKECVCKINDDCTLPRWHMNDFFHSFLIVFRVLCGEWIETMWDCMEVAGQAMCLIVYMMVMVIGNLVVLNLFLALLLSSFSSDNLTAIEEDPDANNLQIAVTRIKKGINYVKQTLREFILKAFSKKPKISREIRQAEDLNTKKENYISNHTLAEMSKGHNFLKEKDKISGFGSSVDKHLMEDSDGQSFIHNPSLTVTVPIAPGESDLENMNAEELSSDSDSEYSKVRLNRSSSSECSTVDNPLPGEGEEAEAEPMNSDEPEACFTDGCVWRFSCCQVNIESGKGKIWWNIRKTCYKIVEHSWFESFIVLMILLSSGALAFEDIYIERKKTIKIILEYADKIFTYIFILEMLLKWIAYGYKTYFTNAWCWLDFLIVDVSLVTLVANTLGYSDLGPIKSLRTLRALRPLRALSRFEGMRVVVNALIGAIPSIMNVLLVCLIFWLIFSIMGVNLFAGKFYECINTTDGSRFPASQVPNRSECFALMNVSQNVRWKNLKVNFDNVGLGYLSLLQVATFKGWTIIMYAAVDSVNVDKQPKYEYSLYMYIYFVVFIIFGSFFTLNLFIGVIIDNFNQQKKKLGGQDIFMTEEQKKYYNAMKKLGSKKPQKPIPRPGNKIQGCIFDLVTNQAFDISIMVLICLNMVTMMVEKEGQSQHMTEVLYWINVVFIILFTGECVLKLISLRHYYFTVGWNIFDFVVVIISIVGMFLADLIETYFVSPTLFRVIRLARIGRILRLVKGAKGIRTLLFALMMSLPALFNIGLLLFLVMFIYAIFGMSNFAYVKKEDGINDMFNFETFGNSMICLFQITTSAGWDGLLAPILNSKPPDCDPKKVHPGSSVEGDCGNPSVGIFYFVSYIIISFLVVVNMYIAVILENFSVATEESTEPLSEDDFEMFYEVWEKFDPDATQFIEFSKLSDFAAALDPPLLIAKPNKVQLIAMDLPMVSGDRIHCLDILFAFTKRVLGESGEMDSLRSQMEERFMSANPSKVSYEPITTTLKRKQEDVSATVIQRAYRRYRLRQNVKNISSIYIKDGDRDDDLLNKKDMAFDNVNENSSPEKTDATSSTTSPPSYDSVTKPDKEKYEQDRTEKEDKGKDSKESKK
Chain of hNav1.7 (Q07699 whole entry partner, looked up): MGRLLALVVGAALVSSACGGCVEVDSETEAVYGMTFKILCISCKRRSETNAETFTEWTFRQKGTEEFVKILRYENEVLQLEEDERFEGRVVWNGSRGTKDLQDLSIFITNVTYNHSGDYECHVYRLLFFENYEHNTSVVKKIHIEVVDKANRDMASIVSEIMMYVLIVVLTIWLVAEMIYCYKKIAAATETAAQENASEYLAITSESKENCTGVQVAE

The first assay has as its target hNav1.7 (Homo sapiens (Human), UniProt Q15858). The assay can be described thus: Tritiated aryl sulfonamide binding to membranes from cells expressing hNav1.7 and the β1 subunit (competitive binding). Particulars: membranes with hNav1.7 and β1 subunit; [3H]compound displacement, 18 h, room temperature; read-out: NaV1.7 395 Memb Binding (IC50). Here is the method: Tritiated Aryl Sulfonamide Binding to Membranes Isolated from Cells that Heterologously Express hNav1.7 and the β1 Subunit
Preparation of membranes containing recombinantly expressed sodium channels: Frozen recombinant cell pellets were thawed on ice and diluted to 4 times the cell pellet weight with ice cold 50 mM Tris HCl, pH 7.4 buffer. The cell suspensions were homogenized on ice using a motorized glass dounce homogeniser. Homogenates were further diluted 8.4 times with ice cold 50 mM Tris HCl, pH 7.4 buffer and then centrifuged at 200×g at 4° C. for 15 min. The supernatants were collected and centrifuged at 10000×g at 4° C. for 50 min. The pellets were then re-suspended in 100 mM NaCl, 20 mM Tris HCl, pH 7.4 buffer containing 1% v/v protease inhibitors (Calbiochem) and re-homogenized on ice. The homogenized membranes were then processed through a syringe equipped with a 26 gauge needle. Protein concentrations were determined by Bradford Assay and the membranes were stored at −80° C.
Radioligand Binding Studies: Saturation experiments. A representative compound of formula (I) was tritiated. Three tritiums were incorporated in place of methyl hydrogens to generate [^3H]compound. Binding of this radioligand was preformed in 5 mL borosilicate glass test tubes at room temperature. Binding was initiated by adding membranes to increasing concentrations of [^3H]compound in 100 mM NaCl, 20 mM Tris HCl, pH 7.4 buffer containing 0.01% w/v bovine serum albumin (BSA) for 18 h. Non-specific binding was determined in the presence of 1 μM unlabelled compound. After 18 h, the reactants were filtered through GF/C glass fiber filters presoaked in 0.5% w/v polyethylene imine. […] [^3H]compound bound to filters was quantified by liquid scintillation counting.
Competitive binding experiments. Binding reactions were preformed in 96-well polypropylene plates at room temperature for 18 h. In 360 μL, membranes were incubated with 100 μM [^3H]compound and increasing concentrations of Test Compound. Non-specific binding was defined in the presence of 1 μM unlabelled compound. Reactions were transferred and filtered through 96-well glass fiber/C filter plates presoaked with 0.5% polyethylene imine. The filtered reactions were washed 5 times with 200 L ice cold buffer containing 0.25% BSA. Bound radioactivity was determined by liquid scintillation counting.
Data Analysis: For saturation experiments, non-specific binding was subtracted from total binding to provide specific binding and these values were recalculated in terms of pmol ligand bound per mg protein. Saturation curves were constructed and dissociation constants were calculated using the single site ligand binding model: Beq=(Bmax*X)/(X+Kd), where Beq is the amount of ligand bound at equilibrium, Bmax is the maximum receptor density, Kd is the dissociation constant for the ligand, and X is the free ligand concentration.
As to `CN(C)S(=O)(=O)NC(=O)c1cc(Cl)c(OC2CCC(C(F)(F)F)CC2)cc1F` (stereo not drawn), the IC50 came out at 3520 nM.

On to `CS(=O)(=O)NC(=O)c1cc(Cl)c(OCCC23CC4CC(CC(C4)C2)C3)cc1F` [Example 11], for which the 50% inhibitory concentration (IC50) stood at 29 nM.

Regarding `COC(=O)C12CC3CC(C1)C(Oc1cc(F)c(C(=O)NS(C)(=O)=O)cc1Cl)C(C3)C2` (single isomer, unassigned) [Example 450], the 50% inhibitory concentration (IC50) amounted to 1200 nM.

Take `CS(=O)(=O)NC(=O)c1cc(Cl)c(OC[C@H]2CC[C@H](C(F)(F)F)CC2)cc1F`: the IC50 is 158 nM.

As for `CN(C)S(=O)(=O)NC(=O)c1cc(Cl)c(OCCCC2CCCC2)cc1F`, the IC50 is 300 nM.

As for `CS(=O)(=O)NC(=O)c1cc(Cl)c(OCC2CCC(F)(F)CC2)cc1F`, the 50% inhibitory concentration (IC50) was 558 nM.

On to `O=C(NS(=O)(=O)N1CC[C@H](O)C1)c1cc(C2CC2)c(OCC2CCCCC2)cc1F`, for which the IC50 was found to be 160 nM.

Regarding `O=C(NS(=O)(=O)C1CC1)c1cc(C2CC2)c(OCC23CCCCC2C3(F)F)cc1F` (stereo not drawn) [Example 433, 5-cyclopropyl-N-cyclopropylsulfonyl-4-[(7,7-difluoronorcaran-1-yl)methoxy]-2-fluoro-benzamide], the IC50 came out at 4 nM.

On to `CS(=O)(=O)NC(=O)c1cc(Cl)c(OCC2(F)C3CC4CC(C3)CC2C4)cc1F` (stereo not drawn) [Example 176], for which the IC50 amounted to 50 nM.

In the case of `CS(=O)(=O)NC(=O)c1cc(C2CC2)c(OCC2(C#N)C3CC4CC(C3)CC2C4)cc1F` (stereo not drawn), the IC50 stood at 22 nM.

In the case of `CNS(=O)(=O)NC(=O)c1cc(C2CC2)c(OCC2CCC(F)(F)CC2)cc1F`, the IC50 worked out at 130 nM.

Consider `CN(C)S(=O)(=O)NC(=O)c1cc(Cl)c(OCC2CCC3(CC2)CC3)cc1F` [Example 88, 5-chloro-N-(dimethylsulfamoyl)-2-fluoro-4-(spiro[2.5]octan-6-ylmethoxy)benzamide], for which the IC50 stood at 121 nM.

As for `CS(=O)(=O)NC(=O)c1cc(Cl)c(COC2C3CC4CC(C3)CC2C4)cc1F` (stereo not drawn), the IC50 was found to be 6 nM.

In the case of `CS(=O)(=O)NC(=O)c1cc(Cl)c(OCC23CC4CC(CC(Cl)(C4)C2)C3)cc1F`, the IC50 was found to be 53 nM.

For `CN(C)S(=O)(=O)NC(=O)c1cc(Cl)c(OC2C3CC4CC(C3)CC2C4)cc1F` (stereo not drawn), the half-inhibitory concentration (IC50) came out at 190 nM.

On to `COCCS(=O)(=O)NC(=O)c1cc(Cl)c(OCC2(C#N)C3CC4CC(C3)CC2C4)cc1F` (stereo not drawn), for which the IC50 worked out at 990 nM.

On to `COc1cc(OCC23CC4CC(CC(C4)C2)C3)c(Cl)cc1C(=O)NS(C)(=O)=O` [Example 56], for which the half-maximal inhibitory concentration (IC50) was found to be 480 nM.

As to `CS(=O)(=O)NC(=O)c1cc(Cl)c(OC2CC3CCC2C3)cc1F` (stereo not drawn), the IC50 amounted to 491 nM.

Regarding `CC(C)(C)S(=O)(=O)NC(=O)c1cc(C2CC2)c(OCC23CC4CC(CC(C4)C2)C3)cc1F`, the IC50 turned out to be 3 nM.

For `CCCCCC12CCC(COc3cc(F)c(C(=O)NS(C)(=O)=O)cc3Cl)(CC1)CC2`, the half-maximal inhibitory concentration (IC50) is 9 nM.

With `CS(=O)(=O)NC(=O)c1cc(Cl)c(C(=O)NC23CC4CC(CC(C4)C2)C3)cc1F`, the half-inhibitory concentration (IC50) was determined as 10000 nM.

On to `CNS(=O)(=O)NC(=O)c1cc(C2CC2)c(OCC2CCCCC2)cc1F`, for which the concentration for half-maximal inhibition (IC50) turned out to be 12 nM.

As to `CS(=O)(=O)NC(=O)c1cc(Cl)c(OCC2(C(F)(F)F)CCC2)cc1F`, the IC50 amounted to 122 nM.

`CNS(=O)(=O)NC(=O)c1cc(Cl)c(OCC23CC4CC(CC(C4)C2)C3)cc1F`: the IC50 amounted to 97 nM.

Take `CS(=O)(=O)NC(=O)c1cc(Cl)c(OCC23CC4CC(CC(C4)C2)C3)c(Cl)c1`: the half-maximal inhibitory concentration (IC50) came to 540 nM.

For `Cc1cc(C(=O)NS(=O)(=O)N2CCC2)c(F)cc1OCC12CC3CC(CC(C3)C1)C2`, the IC50 amounted to 10 nM.

As to `O=C(NS(=O)(=O)N1CC2(COC2)C1)c1cc(C2CC2)c(OCC23CC4CC(CC(C4)C2)C3)cc1F` [Example 237], the half-inhibitory concentration (IC50) turned out to be 67 nM.

Regarding `CNS(=O)(=O)NC(=O)c1cc(Cl)c(COc2ccc3c(c2)OC(C)(C)CC3)cc1F`, the 50% inhibitory concentration (IC50) is 180 nM.

Take `Cc1nnn(C23CC4CC(CC(COc5cc(F)c(C(=O)NS(C)(=O)=O)cc5Cl)(C4)C2)C3)n1`: the IC50 was found to be 770 nM.

In the case of `CN(C)S(=O)(=O)NC(=O)c1cc(Cl)c(OCCC2CCCCCC2)cc1F`, the half-maximal inhibitory concentration (IC50) turned out to be 210 nM.

As to `O=C(NS(=O)(=O)N1CCC1)c1cc(Cl)c(OCC23CC4CC(CC(C4)C2)C3)cc1F`, the IC50 was 21 nM.

In the case of `CC1(C)[C@@H]2CC[C@@H](COc3cc(F)c(C(=O)NS(C)(=O)=O)cc3Cl)[C@H]1C2`, the IC50 was found to be 58 nM.

`CS(=O)(=O)NC(=O)c1cc(Cl)c(O[C@@H]2C[C@@H]3CC[C@H]2C3)cc1F`: the concentration for half-maximal inhibition (IC50) is 167 nM.

Regarding `O=C(NS(=O)(=O)C1CC1)c1cc(C2CC2)c(OCC2CCCC2)cc1F` [Example 242], the IC50 was found to be 20 nM.

For `CS(=O)(=O)NC(=O)c1cc(Cl)c(OCC2CCCCCC2)cc1F`, the IC50 turned out to be 44 nM.

For the compound `CS(=O)(=O)NC(=O)c1cc(C2CC2)c(OCC23CC4CC(CC(F)(C4)C2)C3)cc1F`, the IC50 was 3 nM.

`CN(C)S(=O)(=O)NC(=O)c1cc(Cl)c(OCC2CCCCCC2)cc1F` [Example 100]: the IC50 turned out to be 299 nM.

Regarding `CS(=O)(=O)NC(=O)c1cc(C2CC2)c(COC2C3CC4CC(C3)CC2C4)cc1F` (stereo not drawn), the IC50 amounted to 5 nM.

With “5-chloro-4-((4,4-difluorocyclohexyl)methoxy)-2-fluoro-N-(methylsulfonyl)benzamide [Example 42]”, the half-inhibitory concentration (IC50) was determined as 44 nM.

With `CN(C)S(=O)(=O)NC(=O)c1cc(Cl)c(OCC2CCC3(CCC3)CC2)cc1F`, the IC50 was 81 nM.

As for `CC(C)[C@H]1CC[C@H](Oc2cc(F)c(C(=O)NS(=O)(=O)N(C)C)cc2Cl)CC1`, the half-inhibitory concentration (IC50) came to 138 nM.

On to `CNS(=O)(=O)NC(=O)c1cc(Cl)c(COc2ccc3c(c2)CCC(C)(C)C3)cc1F`, for which the 50% inhibitory concentration (IC50) came to 65 nM.

Consider `O=C(NS(=O)(=O)N1CCC1)c1cc(C2CC2)c(OCC23CC4CC(CC(CO)(C4)C2)C3)cc1F`, for which the IC50 worked out at 80 nM.

Consider `CS(=O)(=O)NC(=O)c1cc(Cl)c(Oc2ccc3c(c2)CCCC3)cc1F`, for which the IC50 turned out to be 190 nM.

Consider `O=C(NS(=O)(=O)N1CCC1)c1ccc(OCC23CC4CC(CC(C4)C2)C3)c(C(F)(F)F)c1` [Example 53], for which the IC50 was 100 nM.

Consider `CS(=O)(=O)NC(=O)c1cc(Cl)c(OCC2(C(F)(F)F)CC2)cc1F`, for which the IC50 amounted to 603 nM.

As to `CN(C)S(=O)(=O)NC(=O)c1cc(Cl)c(OCC2CCCC2)cc1F`, the IC50 stood at 672 nM.

Take `CC1(C)[C@H]2CC=C(COc3cc(F)c(C(=O)NS(C)(=O)=O)cc3Cl)[C@@H]1C2`: the IC50 worked out at 117 nM.

`CC(C)[C@H]1CC[C@H](C)C[C@@H]1Oc1cc(F)c(C(=O)NS(C)(=O)=O)cc1Cl`: the IC50 was 1320 nM.

Regarding `CS(=O)(=O)NC(=O)c1cc(F)c(OCC2CCCNC2)cc1F` (stereo not drawn), the IC50 was determined as 10000 nM.

As to `CC1(C)C(COc2cc(F)c(C(=O)NS(C)(=O)=O)cc2Cl)C1(C)C`, the IC50 is 10000 nM.

Consider `CC(O)CS(=O)(=O)NC(=O)c1ccc(OCC23CC4CC(CC(C4)C2)C3)cc1F` (stereo not drawn) [Example 215], for which the 50% inhibitory concentration (IC50) worked out at 990 nM.

Turning to `COc1ncccc1-c1cc(C(=O)NS(C)(=O)=O)ccc1OCC12CC3CC(CC(C3)C1)C2`, the half-maximal inhibitory concentration (IC50) worked out at 803 nM.

As for `CS(=O)(=O)NC(=O)c1cc(C2CC2)c(OCC2C3CC4CC(C3)CC2C4)cc1F` (stereo not drawn), the IC50 turned out to be 3.1 nM.

Regarding `CS(=O)(=O)NC(=O)c1ccc(OCCC23CC4CC(CC(C4)C2)C3)c(Cl)c1`, the IC50 is 90 nM.

Turning to `CS(=O)(=O)NC(=O)c1cc(Cl)c(OCC2CCC3(CC2)CC3)cc1F` [Example 50], the IC50 was 29 nM.

Turning to `O=C(NS(=O)(=O)c1c[nH]cn1)c1cc(Cl)c(OCC23CC4CC(CC(C4)C2)C3)cc1F`, the half-inhibitory concentration (IC50) turned out to be 190 nM.

Consider `CS(=O)(=O)NC(=O)c1cc(C2CC2)c(OC2CN(C(c3ccccc3)c3ccccc3)C2)cc1F` [Example 439, 4-(1-benzhydrylazetidin-3-yloxy)-5-cyclopropyl-2-fluoro-N-(methylsulfonyl)benzamide], for which the IC50 was 28 nM.

As to `CN(C)S(=O)(=O)NC(=O)c1cc(Cl)c(OC2CCC3(CCCC3)CC2)cc1F`, the IC50 worked out at 273 nM.

As for `COC12CC3CC(CC(COc4cc(F)c(C(=O)NS(C)(=O)=O)cc4Cl)(C3)C1)C2`, the IC50 stood at 603 nM.

Still in this assay, the particulars now being: read-out: NaV1.7 395 Memb Binding (IC50).
Regarding “4-((1-((4-chlorophenyl)(phenyl)methyl)azetidin-3-yl)-methoxy)-5-cyclopropyl-2-fluoro-N-(methylsulfonyl)benzamide [Example 398]”, the IC50 amounted to 6 nM.

Consider `CS(=O)(=O)NC(=O)c1ccc(C(O)C2C3CC4CC(C3)CC2C4)c(Cl)c1` (stereo not drawn), for which the concentration for half-maximal inhibition (IC50) was 1200 nM.

As for `CS(=O)(=O)NC(=O)c1cc(F)c(OCC2CCCO2)cc1F` (stereo not drawn), the IC50 amounted to 10000 nM.
